Measurements published in patent US20250205362A1, “LIPID NANOPARTICLES” (NATIONAL UNIVERSITY CORPORATION HOKKAIDO UNIVERSITY, priority 2022, published 2025).
Each block holds one compound with its values, some of them ahead of it.

Assays:
TTR gene = test: Measurement of TTR-KO activity (serum TTR protein, ELISA); format: in vivo, mouse; conditions: FIG. 5; TTR-RNP-ssODN-loaded LNP; mouse serum 7 days after administration
Experimental: Lipid nanoparticles encapsulating Cas9/sgTTR-RNP (Cas9/sgTTR-RNP-loaded lipid nanoparticles) were intravenously injected to BALB/c mice (female, 4 weeks old) at the indicated doses. One week after intravenous injection, the mice were euthanized, blood was collected, and serum was isolated by centrifugation. The TTR protein concentration in the serum was determined using a commercially available ELISA kit (Prealbumin ELISA Kit (mouse), Aviva Systems Biology) according to the manufacturer's protocol. The serum TTR protein concentration of untreated mice was taken as 100%, and the relative value (%) of the serum TTR protein concentration of mice administered with each lipid nanoparticle was taken as the knockout activity (TTR-KO activity) of the lipid nanoparticle.

[1] = Encapsulation rate of lipid nanoparticles (Ribogreen); format: physicochemical
Experimental: The encapsulation rate of the lipid nanoparticles was calculated by measuring the amount of encapsulated nucleic acid (the amount of ssODN in the case of RNP-ssODN) using an RNA intercalator Ribogreen (manufactured by Life Technologies).

BALB/c mice = test: Measurement of Fluc activity in tissues after iv Fluc mRNA-loaded lipid nanoparticles; format: in vivo, mouse; conditions: Example 1, FIG. 1; Fluc mRNA-loaded LNP 50/10/40/1.5; Balb/c mice iv 0.01 mg mRNA/kg, 6 hours
Experimental: First, lipid nanoparticles encapsulating Fluc mRNA (Fluc mRNA-loaded lipid nanoparticles) were intravenously injected into BALB/c mice (female, 4 weeks old) at a dose of 0.01 mg mRNA/kg body weight. Six hours after intravenous injection, the mice were euthanized, and each tissue was collected, frozen in liquid nitrogen, and stored at −80° C. The tissues were homogenized in passive lysis buffer (Promega) using a bead cell disrupter (Micro Smash MS-100R, TOMY Seiko). Tissue debris was removed by centrifugation and the supernatant was collected. Fluc activity in the supernatant was measured using a luciferase assay system (E1500, Promega) according to the manufacturer's protocol. Luminescence was measured using a luminometer (Luminescencer-PSN, ATTO). The protein concentration was determined using a commercially available measurement kit (BCA Protein Assay Kit, Pierce). Fluc activity was expressed as relative light units (RLU) per mg of protein.

[2] = Average particle diameter, PdI and zeta potential of lipid nanoparticles (dynamic light scattering); format: physicochemical
Experimental: The mean particle diameter (number average value), ζ-mean particle diameter, and polydispersity index (PdI) of the lipid nanoparticles in PBS(−) (pH 7.4), as well as the zeta potential in 10 mM HEPES buffer (pH 7.4), were measured using an analyzing device, Zetasizer Nano ZS ZEN3600 (Malvern), which utilizes dynamic light scattering.

[3] = Metabolic evaluation: lipid amount in the liver (LC/MS); format: in vivo, mouse; conditions: FIG. 4; Fluc mRNA-loaded LNP iv 0.5 mg mRNA/kg, BALB/c mice; 0.5, 4, 24 hours
Experimental: For liquid chromatography-mass spectrometry (LC/MS) for lipid quantification, liver samples stored at −80° C. prior to analysis were used. Mice were intravenously injected with lipid nanoparticles (0.5 mg RNA/kg body weight) and then liver tissue was harvested.
The tissue was homogenized in 200 μL of water, and the resulting tissue homogenate (50 μL) was subjected to an extraction with 400 μL of acetonitrile/isopropanol (50:50 (v/v)). The extract was centrifuged (4000 rpm, 10 min), the supernatant was filtered, and the filtrate was diluted 50-fold with water/acetonitrile/isopropanol (1:8:8 (v/v)) and transferred to a vial for LC/MS analysis using an Accucore. LC/MS was performed under the following conditions. The parent lipids and their predicted metabolites were detected under optimized conditions. Each lipid molecule was monitored using the following masses: [M+H]^+->916 (CL4H6), 864 (CL4F6), 982 (CL4F10-b-7), 752 (CL4F10-e-2). […]
Specifically, lipid nanoparticles encapsulating Fluc mRNA (Fluc mRNA-loaded lipid nanoparticles) were intravenously injected into BALB/c mice (female, 4 weeks old) at a dose of 0.5 mg mRNA/kg body weight. The mice were euthanized 0.5 hours, 4 hours, or 24 hours after the intravenous injection, and the amount of lipid derived from each lipid nanoparticle in the liver was measured.

factor 7 (F7) = conditions: knockdown of factor 7 (F7) in mouse liver; cited from earlier work
[4] = Fluc mRNA-loaded LNP, cationic lipid/DSPC/cholesterol/PEG-DMG 50/10/40/1.5 mol%, Table 5
[5] = TTR-RNP-ssODN-loaded LNP (ssODN-TTR_3-40%), cationic lipid/DSPC/cholesterol/PEG-DMG 50/10/40/3.5 mol%, Table 8
[6] = Fluc mRNA-loaded LNP, comparison CL4F11-ζ-2, SM, ALC, MC3, Table 21
[7] = Fluc mRNA-loaded LNP, lipid/DSPC/cholesterol/PEG-DMG 50/10/40/1.5 (MC3: 50/10/38.5/1.5) mol%, Table 15
[8] = TTR-RNP-ssODN-loaded LNP, comparison CL4F11-ζ-2, SM, ALC, MC3, Table 20

Encapsulation rate [1, 4]: 94.6%
Encapsulation rate [1, 5]: 86.0%
Number-average particle diameter [2, 4]: 35.3 nm
PdI [2, 4]: 0.196
ζ-average [2, 4]: 65.3 nm
ζ-potential [2, 4]: −3.30 mV
Number-average particle diameter [2, 5]: 82.5 nm
PdI [2, 5]: 0.104
ζ-average [2, 5]: 127.1 nm
ζ-potential [2, 5]: −0.48 mV
Compound: 7-(4-(dipropylamino)butyl)-7-hydroxytridecane-1,13-diylbis(3-heptyldecanoate) [CL4F10-b-7]
serum TTR activity / gene knockout versus CL4F6 (TTR gene): lower serum TTR activity and higher gene knockout
Fluc activity (gene transfer ability) in liver and spleen (BALB/c mice): equal to or greater than that of CL4F6

Encapsulation rate [1, 4]: 91.4%
Encapsulation rate [1, 5]: 84.9%
Number-average particle diameter [2, 4]: 45.1 nm
PdI [2, 4]: 0.267
ζ-average [2, 4]: 81.5 nm
ζ-potential [2, 4]: −4.32 mV
Number-average particle diameter [2, 5]: 99.6 nm
PdI [2, 5]: 0.145
ζ-average [2, 5]: 141.5 nm
ζ-potential [2, 5]: −0.10 mV
Compound: 7-(4-(dipropylamino)butyl)-7-hydroxytridecane-1,13-diylbis(3-hexylnonanoate) [CL4F9-b-6]
serum TTR activity / gene knockout versus CL4F6 (TTR gene): lower serum TTR activity and higher gene knockout
Fluc activity (gene transfer ability) in liver and spleen (BALB/c mice): equal to or greater than that of CL4F6

Compound: CCCCC(CC)CCCCC(=O)OCCCCCCC(O)(CCCCCCOC(=O)CCCCC(CC)CCCC)CCCCN(CCC)CCC (stereo not shown) [CL4F10-e-2, 7-(4-(dipropylamino)butyl)-7-hydroxytridecane-1,13-diylbis(6-ethyldecanoate)]
amount of lipid in the liver (metabolism) [3]: most of it was degraded within 24 hours after administration

Encapsulation rate [1, 5]: 83.5%
Number-average particle diameter [2, 5]: 80.1 nm
PdI [2, 5]: 0.254
ζ-average [2, 5]: 136.5 nm
ζ-potential [2, 5]: 2.83 mV
Compound: CCCCCCCC/C=C\CCCCCCCC(=O)OCCCCCCC(O)(CCCCCCOC(=O)CCCCCCC/C=C\CCCCCCCC)CCCCN(C(C)C)C(C)C [CL4H6, 7-(4-(diisopropylamino)butyl)-7-hydroxytridecane-1,13-diyl dioleate, reference compound]
amount of lipid in the liver (metabolism) [3]: almost completely disappeared from the liver 24 hours after administration

Compound: CCCCCC/C=C\COC(=O)CCCCCCCC(CCCCCCCC(=O)OC/C=C\CCCCCC)OC(=O)CCCN(C)C [L319]
ED50 in F7 knockdown (factor 7 (F7)): 0.01 mg siRNA/kg

Encapsulation rate [1, 6]: 87.1%
Encapsulation rate [1, 7]: 79.3%
Encapsulation rate [1, 8]: 78.7%
Number-average particle diameter [2, 6]: 71.0 nm
PdI [2, 6]: 0.190
ζ-average [2, 6]: 112.4 nm
ζ-potential [2, 6]: −2.17 mV
Number-average particle diameter [2, 7]: 48.0 nm
PdI [2, 7]: 0.198
ζ-average [2, 7]: 68.6 nm
ζ-potential [2, 7]: 2.19 mV
Number-average particle diameter [2, 8]: 82.7 nm
PdI [2, 8]: 0.213
ζ-average [2, 8]: 155.9 nm
ζ-potential [2, 8]: 0.52 mV
Compound: CCCCC/C=C\C/C=C\CCCCCCCCC(CCCCCCCC/C=C\C/C=C\CCCCC)OC(=O)CCCN(C)C [MC3, DLin-MC3-DMA, reference compound]
ED50 in F7 knockdown (factor 7 (F7)): 0.005 mg siRNA/kg

Compound: CCCCC/C=C\C/C=C\CCCCCCCCOC1(OCCCCCCCC/C=C\C/C=C\CCCCC)CCN(C)CC1 [YSK05]
ED50 in F7 knockdown (factor 7 (F7)): 0.06 mg siRNA/kg
